Experimental data reported in the Kinase Knowledgebase extract (Sharma et al. 2016).

What was measured:
EGFR (human) [1] = target: EGFR (human) (UniProt P00533); conditions: hn5
EGFR (human) [2] = target: EGFR (human) (UniProt P00533); conditions: a431
EGFR (human) [3] = target: EGFR (human) (UniProt P00533); conditions: caski
EGFR (human) [4] = target: EGFR (human) (UniProt P00533); conditions: siha
EGFR (human) [5] = target: EGFR (human) (UniProt P00533); conditions: rpmi8226
EGFR (human) [6] = target: EGFR (human) (UniProt P00533); conditions: k562
EGFR (human) [7] = target: EGFR (human) (UniProt P00533); conditions: ekvx
EGFR (human) [8] = target: EGFR (human) (UniProt P00533); conditions: h226
EGFR (human) [9] = target: EGFR (human) (UniProt P00533); conditions: h23
EGFR (human) [10] = target: EGFR (human) (UniProt P00533); conditions: h460
EGFR (human) [11] = target: EGFR (human) (UniProt P00533); conditions: h522
EGFR (human) [12] = target: EGFR (human) (UniProt P00533); conditions: colo-205
EGFR (human) [13] = target: EGFR (human) (UniProt P00533); conditions: hcc2998
EGFR (human) [14] = target: EGFR (human) (UniProt P00533); conditions: hct 116
EGFR (human) [15] = target: EGFR (human) (UniProt P00533); conditions: hct-15
EGFR (human) [16] = target: EGFR (human) (UniProt P00533); conditions: ht-29
EGFR (human) [17] = target: EGFR (human) (UniProt P00533); conditions: km-12
EGFR (human) [18] = target: EGFR (human) (UniProt P00533); conditions: sw 620
EGFR (human) [19] = target: EGFR (human) (UniProt P00533); conditions: sf268
EGFR (human) [20] = target: EGFR (human) (UniProt P00533); conditions: sf-539
EGFR (human) [21] = target: EGFR (human) (UniProt P00533); conditions: snb-19
EGFR (human) [22] = target: EGFR (human) (UniProt P00533); conditions: snb-75
EGFR (human) [23] = target: EGFR (human) (UniProt P00533); conditions: malme-3m
EGFR (human) [24] = target: EGFR (human) (UniProt P00533); conditions: sk-mel-2
EGFR (human) [25] = target: EGFR (human) (UniProt P00533); conditions: sk-mel-5
EGFR (human) [26] = target: EGFR (human) (UniProt P00533); conditions: uacc62
EGFR (human) [27] = target: EGFR (human) (UniProt P00533); conditions: igr-ovi
EGFR (human) [28] = target: EGFR (human) (UniProt P00533); conditions: ovcar-3
EGFR (human) [29] = target: EGFR (human) (UniProt P00533); conditions: ovcar-4
EGFR (human) [30] = target: EGFR (human) (UniProt P00533); conditions: ovcar-5
EGFR (human) [31] = target: EGFR (human) (UniProt P00533); conditions: ovcar-8
EGFR (human) [32] = target: EGFR (human) (UniProt P00533); conditions: sk-ov-3
EGFR (human) [33] = target: EGFR (human) (UniProt P00533); conditions: 786-0
EGFR (human) [34] = target: EGFR (human) (UniProt P00533); conditions: achn
EGFR (human) [35] = target: EGFR (human) (UniProt P00533); conditions: caki-1
EGFR (human) [36] = target: EGFR (human) (UniProt P00533); conditions: rxf-393
EGFR (human) [37] = target: EGFR (human) (UniProt P00533); conditions: sn12c
EGFR (human) [38] = target: EGFR (human) (UniProt P00533); conditions: tk-10
EGFR (human) [39] = target: EGFR (human) (UniProt P00533); conditions: uo-31
EGFR (human) [40] = target: EGFR (human) (UniProt P00533); conditions: pc-3
EGFR (human) [41] = target: EGFR (human) (UniProt P00533); conditions: uo-31; remark: listed apart in the source
EGFR (human) [42] = target: EGFR (human) (UniProt P00533); conditions: mda-mb-231/atcc
EGFR (human) [43] = target: EGFR (human) (UniProt P00533); conditions: h7 578t
EGFR (human) [44] = target: EGFR (human) (UniProt P00533); conditions: mda-mb-435
EGFR (human) [45] = target: EGFR (human) (UniProt P00533); conditions: mda-n
EGFR (human) [46] = target: EGFR (human) (UniProt P00533); conditions: bt-549
EGFR (human) [47] = target: EGFR (human) (UniProt P00533); conditions: mg-mid
EGFR (human) [48] = target: EGFR (human) (UniProt P00533); conditions: ccrf-cem leukemia cell
EGFR (human) [49] = target: EGFR (human) (UniProt P00533); conditions: sr
EGFR (human) [50] = target: EGFR (human) (UniProt P00533); conditions: molt-4

EGFR (human), sequence (P00533 whole entry, looked up): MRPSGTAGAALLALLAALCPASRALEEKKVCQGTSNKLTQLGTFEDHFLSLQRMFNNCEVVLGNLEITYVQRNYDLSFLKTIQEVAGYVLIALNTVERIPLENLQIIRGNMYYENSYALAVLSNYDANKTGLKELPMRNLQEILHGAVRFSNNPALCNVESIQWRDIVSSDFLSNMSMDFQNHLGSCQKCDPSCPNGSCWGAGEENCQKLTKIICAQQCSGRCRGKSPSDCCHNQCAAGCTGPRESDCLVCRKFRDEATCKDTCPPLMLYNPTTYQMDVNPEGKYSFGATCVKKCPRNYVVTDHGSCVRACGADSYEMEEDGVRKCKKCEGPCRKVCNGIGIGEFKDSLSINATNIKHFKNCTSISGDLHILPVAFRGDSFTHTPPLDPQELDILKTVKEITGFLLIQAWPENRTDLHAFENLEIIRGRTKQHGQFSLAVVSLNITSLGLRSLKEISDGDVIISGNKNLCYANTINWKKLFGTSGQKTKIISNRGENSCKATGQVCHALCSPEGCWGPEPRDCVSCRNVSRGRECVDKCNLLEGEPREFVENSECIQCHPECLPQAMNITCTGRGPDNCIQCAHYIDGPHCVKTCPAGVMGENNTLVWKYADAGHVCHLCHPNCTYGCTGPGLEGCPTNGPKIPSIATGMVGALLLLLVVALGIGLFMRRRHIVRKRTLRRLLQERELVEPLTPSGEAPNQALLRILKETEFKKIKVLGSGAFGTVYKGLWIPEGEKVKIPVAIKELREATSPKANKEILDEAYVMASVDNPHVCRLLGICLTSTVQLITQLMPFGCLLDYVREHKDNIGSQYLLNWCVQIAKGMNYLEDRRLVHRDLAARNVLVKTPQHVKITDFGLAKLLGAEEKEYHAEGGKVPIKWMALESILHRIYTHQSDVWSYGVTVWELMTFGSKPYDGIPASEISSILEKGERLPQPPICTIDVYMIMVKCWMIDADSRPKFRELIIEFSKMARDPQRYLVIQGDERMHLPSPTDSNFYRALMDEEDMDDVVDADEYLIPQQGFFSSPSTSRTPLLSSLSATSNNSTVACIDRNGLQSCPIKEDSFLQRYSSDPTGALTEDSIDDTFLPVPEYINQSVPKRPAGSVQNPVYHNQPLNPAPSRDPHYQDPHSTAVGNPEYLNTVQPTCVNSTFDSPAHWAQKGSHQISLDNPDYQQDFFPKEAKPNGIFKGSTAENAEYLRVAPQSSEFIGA

N#CC(C#N)=C(N)/C(C#N)=C/c1ccc([N+](=O)[O-])s1
Conditions	GI50 [µM]	IC50 [µM]
EGFR (human) [1]	–	8.4
EGFR (human) [2]	–	6.07
EGFR (human) [3]	–	9.24
EGFR (human) [4]	–	13.4
EGFR (human) [5]	5.01	–
EGFR (human) [6]	3.89	–
EGFR (human) [7]	19.5	–
EGFR (human) [8]	17.8	–
EGFR (human) [9]	16.6	–
EGFR (human) [10]	23.4	–
EGFR (human) [11]	11	–
EGFR (human) [12]	15.1	–
EGFR (human) [13]	15.8	–
EGFR (human) [14]	3.39	–
EGFR (human) [15]	17.8	–
EGFR (human) [16]	15.8	–
EGFR (human) [17]	18.2	–
EGFR (human) [18]	3.23	–
EGFR (human) [19]	22.4	–
EGFR (human) [20]	23.4	–
EGFR (human) [21]	17.8	–
EGFR (human) [22]	14.8	–
EGFR (human) [23]	22.9	–
EGFR (human) [24]	19.5	–
EGFR (human) [25]	7.58	–
EGFR (human) [26]	79.4	–
EGFR (human) [27]	7.24	–
EGFR (human) [28]	15.5	–
EGFR (human) [29]	15.5	–
EGFR (human) [30]	26.9	–
EGFR (human) [31]	12.6	–
EGFR (human) [32]	17.8	–
EGFR (human) [33]	19.9	–
EGFR (human) [34]	19.9	–
EGFR (human) [35]	18.2	–
EGFR (human) [36]	9.33	–
EGFR (human) [37]	13.5	–
EGFR (human) [38]	18.2	–
EGFR (human) [39]	18.2	–
EGFR (human) [40]	19.9	–
EGFR (human) [41]	14.8	–
EGFR (human) [42]	17	–
EGFR (human) [43]	18.6	–
EGFR (human) [44]	12.3	–
EGFR (human) [45]	4.57	–
EGFR (human) [46]	12.9	–
EGFR (human) [47]	13.2	–
EGFR (human) [48]	4.17	–
EGFR (human) [49]	12	–
EGFR (human) [50]	5.89	–

CCOC(=O)/C(C#N)=C/c1ccc([N+](=O)[O-])s1
Conditions	GI50 [µM]	IC50 [µM]
EGFR (human) [1]	–	5.4
EGFR (human) [2]	–	4.6
EGFR (human) [3]	–	6.94
EGFR (human) [4]	–	4.59
EGFR (human) [5]	2.34	–
EGFR (human) [6]	1.2	–
EGFR (human) [7]	15.5	–
EGFR (human) [8]	16.2	–
EGFR (human) [9]	2.63	–
EGFR (human) [10]	6.92	–
EGFR (human) [11]	1.69	–
EGFR (human) [12]	1.62	–
EGFR (human) [13]	3.47	–
EGFR (human) [14]	1.48	–
EGFR (human) [15]	2.19	–
EGFR (human) [16]	2.04	–
EGFR (human) [17]	6.92	–
EGFR (human) [18]	1.48	–
EGFR (human) [19]	6.16	–
EGFR (human) [20]	5.75	–
EGFR (human) [21]	14.8	–
EGFR (human) [22]	7.58	–
EGFR (human) [23]	2.24	–
EGFR (human) [24]	3.31	–
EGFR (human) [25]	1.2	–
EGFR (human) [26]	1.35	–
EGFR (human) [27]	1.66	–
EGFR (human) [28]	2.04	–
EGFR (human) [29]	1.7	–
EGFR (human) [30]	1.95	–
EGFR (human) [31]	1.99	–
EGFR (human) [32]	15.5	–
EGFR (human) [33]	10.7	–
EGFR (human) [34]	1.9	–
EGFR (human) [35]	2.14	–
EGFR (human) [36]	1.7	–
EGFR (human) [37]	5.75	–
EGFR (human) [38]	3.47	–
EGFR (human) [39]	1.86	–
EGFR (human) [40]	2.95	–
EGFR (human) [41]	10.7	–
EGFR (human) [42]	1.86	–
EGFR (human) [43]	3.47	–
EGFR (human) [44]	2.34	–
EGFR (human) [45]	2.19	–
EGFR (human) [46]	0.871	–
EGFR (human) [47]	3.47	–
EGFR (human) [48]	1.55	–
EGFR (human) [49]	3.02	–
EGFR (human) [50]	1.74	–

N#CC(C#N)=Cc1csc([N+](=O)[O-])c1
Conditions	GI50 [µM]	IC50 [µM]
EGFR (human) [1]	–	40.4
EGFR (human) [2]	–	28.4
EGFR (human) [3]	–	40
EGFR (human) [4]	–	44.6
EGFR (human) [5]	31.6	–
EGFR (human) [6]	27.5	–
EGFR (human) [7]	> 100	–
EGFR (human) [8]	> 100	–
EGFR (human) [9]	30.2	–
EGFR (human) [10]	54.9	–
EGFR (human) [11]	15.1	–
EGFR (human) [12]	27.5	–
EGFR (human) [13]	26.9	–
EGFR (human) [14]	16.2	–
EGFR (human) [15]	33.9	–
EGFR (human) [16]	21.9	–
EGFR (human) [17]	35.5	–
EGFR (human) [18]	43.6	–
EGFR (human) [19]	38.9	–
EGFR (human) [20]	41.7	–
EGFR (human) [21]	60.2	–
EGFR (human) [22]	25.1	–
EGFR (human) [23]	33.9	–
EGFR (human) [24]	26.9	–
EGFR (human) [25]	15.8	–
EGFR (human) [26]	17.8	–
EGFR (human) [27]	24	–
EGFR (human) [28]	21.9	–
EGFR (human) [29]	28.8	–
EGFR (human) [30]	59	–
EGFR (human) [31]	19.5	–
EGFR (human) [32]	59	–
EGFR (human) [33]	33.9	–
EGFR (human) [34]	19.5	–
EGFR (human) [35]	24.5	–
EGFR (human) [36]	17.4	–
EGFR (human) [37]	34.7	–
EGFR (human) [38]	45.7	–
EGFR (human) [39]	17.8	–
EGFR (human) [40]	38	–
EGFR (human) [41]	15.1	–
EGFR (human) [42]	26.3	–
EGFR (human) [43]	28.2	–
EGFR (human) [44]	20.9	–
EGFR (human) [45]	19.9	–
EGFR (human) [46]	27.5	–
EGFR (human) [47]	30.2	–
EGFR (human) [48]	23.4	–
EGFR (human) [49]	30.2	–
EGFR (human) [50]	23.4	–
